# Laboratory results from patent publication US20150209313A1 (priority 2014, published 2015).
# Entries after “also recorded” stand apart in the source; their conditions may differ. Like-named read-outs stand apart in the source and are kept apart here.
# How the values were obtained:
# [1] = molecular target: neuraminidase, Influenza Virus A/California/07/2009 H1N1 (Oseltamivir sensitive) (Influenza A virus (A/California/07/2009(H1N1)), UniProt C3W6G3); type: biochemical
# [2] = test system: Influenza Virus A/California/07/2009 H1N1; type: cell-based
# [3] = test system: Influenza Virus A/Maryland/04/2011 H1N1; type: cell-based
structure (smiles),measurement,setting,value
CCOC(=O)C1=C[C@@H](OC(CC)CC)[C@H](NC(C)=O)[C@@H](N)C1 [Oseltamivir],Average Fluorescence,[1]; 0.005 nM,66385.00
same,Average Fluorescence,[1]; 0.05 nM,56340.00
same,Average Fluorescence,[1]; 0.5 nM,32060.00
same,Average Fluorescence,[1]; 5 nM,7802.00
same,Average Fluorescence,[1]; 50 nM,1215.00
same,Average Fluorescence,[1]; 500 nM,354.00
same,Average Fluorescence,"[1]; 5,000 nM",179.00
same,Average Fluorescence,"[1]; 50,000 nM",365.00
same,plaque inhibitory effect (in words),[2],sensitive to this drug to 1 μM; also recorded: inhibitory effects
same,plaque inhibitory effect (in words),[3],only partially sensitive; also recorded: reduced oseltamivir susceptibility
